System: SEM cells
Test: cell viability relative to DMSO control; higher = less cytotoxic
Conditions: 48 h
Outline: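 Library compounds in DMSO were pin-dosed in an 11-point threefold series (47 μM to 0.79 nM) onto leukemia cells in 1536-well plates (5 μl). Plates held 500 cells/well of NOMO1 or SEM or 1000 cells/well of P12-Ichikawa, each adapted for at least four passages in each medium. Luminescence was read with CellTiter-Glo One after 48 h at 37°C. Viability means the per-plate percentage relative to DMSO wells, using cell-free wells as background.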

[1] = HPLM + 10% dialyzed FBS, 0.000781 µM
[2] = HPLM + 10% dialyzed FBS, 0.00234 µM
[3] = HPLM + 10% dialyzed FBS, 0.00702 µM
[4] = HPLM + 10% dialyzed FBS, 0.0211 µM
[5] = HPLM + 10% dialyzed FBS, 0.0632 µM
[6] = HPLM + 10% dialyzed FBS, 0.19 µM
[7] = HPLM + 10% dialyzed FBS, 0.569 µM
[8] = HPLM + 10% dialyzed FBS, 1.71 µM
[9] = HPLM + 10% dialyzed FBS, 5.12 µM
[10] = HPLM + 10% dialyzed FBS, 15.4 µM
[11] = HPLM + 10% dialyzed FBS, 46.1 µM
[12] = RPMI 5 mM glucose + 10% FBS, 0.000781 µM
[13] = RPMI 5 mM glucose + 10% FBS, 0.00234 µM
[14] = RPMI 5 mM glucose + 10% FBS, 0.00702 µM
[15] = RPMI 5 mM glucose + 10% FBS, 0.0211 µM
[16] = RPMI 5 mM glucose + 10% FBS, 0.0632 µM
[17] = RPMI 5 mM glucose + 10% FBS, 0.19 µM
[18] = RPMI 5 mM glucose + 10% FBS, 0.569 µM
[19] = RPMI 5 mM glucose + 10% FBS, 1.71 µM
[20] = RPMI 5 mM glucose + 10% FBS, 5.12 µM
[21] = RPMI 5 mM glucose + 10% FBS, 15.4 µM
[22] = RPMI 5 mM glucose + 10% FBS, 46.1 µM
[23] = RPMI 5 mM glucose + 10% dialyzed FBS, 0.000781 µM
[24] = RPMI 5 mM glucose + 10% dialyzed FBS, 0.00234 µM
[25] = RPMI 5 mM glucose + 10% dialyzed FBS, 0.00702 µM
[26] = RPMI 5 mM glucose + 10% dialyzed FBS, 0.0211 µM
[27] = RPMI 5 mM glucose + 10% dialyzed FBS, 0.0632 µM
[28] = RPMI 5 mM glucose + 10% dialyzed FBS, 0.19 µM
[29] = RPMI 5 mM glucose + 10% dialyzed FBS, 0.569 µM
[30] = RPMI 5 mM glucose + 10% dialyzed FBS, 1.71 µM
[31] = RPMI 5 mM glucose + 10% dialyzed FBS, 5.12 µM
[32] = RPMI 5 mM glucose + 10% dialyzed FBS, 15.4 µM
[33] = RPMI 5 mM glucose + 10% dialyzed FBS, 46.1 µM

SMILES | cell viability [1] | cell viability [2] | cell viability [3] | cell viability [4] | cell viability [5] | cell viability [6] | cell viability [7] | cell viability [8] | cell viability [9] | cell viability [10] | cell viability [11] | cell viability [12] | cell viability [13] | cell viability [14] | cell viability [15] | cell viability [16] | cell viability [17] | cell viability [18] | cell viability [19] | cell viability [20] | cell viability [21] | cell viability [22] | cell viability [23] | cell viability [24] | cell viability [25] | cell viability [26] | cell viability [27] | cell viability [28] | cell viability [29] | cell viability [30] | cell viability [31] | cell viability [32] | cell viability [33]
N/C(=N\C(=O)c1nc(Cl)c(N)nc1N)NCc1ccccc1 | 74.5% | 91.8% | 92.9% | 106% | 91.3% | 94.6% | 113% | 102% | 98.8% | 85% | 77.2% | 76.4% | 91.1% | 95.2% | 94.3% | 83.8% | 96.5% | 84.3% | 97.3% | 94.6% | 62.3% | 43.5% | 91% | 103% | 94% | 102% | 81.6% | 99.8% | 94.2% | 99.5% | 90.8% | 76.2% | 59.7%
CN1[C@@H]2CC(O)C[C@H]1[C@@H]1O[C@@H]12 (some centres undefined) |  |  |  |  |  |  |  |  |  |  |  | 124% | 123% | 114% | 19.5% | 134% | 115% | 109% | 130% | 115% | 109% | 7.57% | 101% | 126% | 116% | 21.8% | 103% | 111% | 103% | 106% | 94.3% | 81.4% | 5.54%
CC1(C)CC(=O)c2c(C(F)(F)F)nn(-c3ccc(C(N)=O)c(NC4CCC(OC(=O)CN)CC4)c3)c2C1 (centres undefined) | 106% | 104% | 113% | 112% | 114% | 73.2% | 35.7% | 20.2% | 17% | 17.3% | 17.8% | 108% | 99.1% | 105% | 120% | 112% | 73.3% | 37.3% | 23.9% | 18.4% | 15.3% | 16.1% | 94.8% | 95.2% | 100% | 89.2% | 89.5% | 63.3% | 34.5% | 20.5% | 17.3% | 14.3% | 14.7%
CN(C)c1ccc(C(=O)NCCCCCCC(=O)NO)cc1 | 97.1% | 94.4% | 91.8% | 88.1% | 97.7% | 96.2% | 93.9% | 34% | 3.1% | 1.85% | 2.9% | 91.8% | 100% | 94.6% | 92% | 112% | 94.8% | 76.2% | 37.3% | 3.1% | 1.95% | 3.03% | 93.2% | 111% | 105% | 96.4% | 95% | 90.7% | 83.5% | 31.4% | 2.63% | 1.52% | 3.31%
COc1ccc(Cn2ccc3ccc(C(=O)NO)cc32)cc1 | 102% | 107% | 120% | 120% | 123% | 113% | 127% | 118% | 112% | 114% | 58.5% | 103% | 115% | 122% | 98.1% | 109% | 129% | 127% | 127% | 109% | 109% | 49.3% | 99.6% | 110% | 115% | 76.3% | 114% | 118% | 112% | 110% | 112% | 111% | 38.5%
Cc1ccc(F)c(NC(=O)Nc2ccc(-c3cccc4[nH]nc(N)c34)cc2)c1 | 91.7% | 92.7% | 86.3% | 76.2% | 59.5% | 56.7% | 55.1% | 62.9% | 64.9% | 64.2% | 14.4% | 73.4% | 84.4% | 80.3% | 69.9% | 49.7% | 48.4% | 41.7% | 56% | 48.8% | 29.9% | 1.63% | 87.5% | 91.3% | 82.1% | 71.1% | 65.8% | 48.7% | 60.6% | 61.7% | 57.6% | 43.5% | 8.13%
Cn1c(=O)c2c(ncn2CC(O)CO)n(C)c1=O (centres undefined) | 87.4% | 101% | 116% | 92.6% | 104% | 109% | 113% | 111% | 96% | 108% | 124% | 106% | 96.7% | 120% | 101% | 120% | 123% | 113% | 111% | 111% | 111% | 122% | 93.1% | 120% | 99.3% | 110% | 116% | 113% | 121% | 133% | 135% | 125% | 137%
OC1=C(C=CC=C1)C2=CC=C(C=C2)C3=CSC4=C3C(=C(/C#N)C(=O)N4)/O | 114% | 123% | 131% | 129% | 120% | 132% | 124% | 113% | 96.6% | 113% | 103% | 111% | 109% | 118% | 112% | 105% | 90.5% | 98.6% | 112% | 87.4% | 96.7% | 90.9% | 113% | 117% | 124% | 133% | 121% | 126% | 115% | 117% | 104% | 110% | 100%
Cc1cnc(Nc2ccc(OCCN3CCCC3)cc2)nc1Nc1cccc([S+](=O)([O-])NC(C)(C)C)c1 | 83.6% | 93.2% | 93.9% | 88.2% | 96.3% | 89.5% | 96.7% | 102% | 96.1% | 68.2% | 67.2% | 88.9% | 95.8% | 95.4% | 111% | 104% | 106% | 108% | 88.5% | 89.9% | 90.1% | 77.2% | 83.5% | 97.3% | 98.8% | 106% | 98.2% | 99.2% | 106% | 98.1% | 82.4% | 84.5% | 71.9%
Clc1ccc(COC(Cn2ccnc2)c2ccc(Cl)cc2Cl)cc1 (centres undefined) | 72.9% | 82.3% | 89.9% | 97.2% | 83.6% | 84.7% | 80.8% | 88.9% | 92.5% | 87.9% | 80.5% | 116% | 110% | 121% | 114% | 119% | 102% | 119% | 107% | 113% | 107% | 82% | 76.8% | 78.8% | 113% | 85% | 92.2% | 88.7% | 111% | 94.2% | 101% | 79.7% | 74.5%
CN(C(=O)c1ccc(F)cc1C(F)(F)F)C1CCN(c2nnc(-c3ccnn3C)c3ccccc23)CC1 | 50.4% | 67.5% | 60.6% | 62.4% | 79.4% | 85.1% | 69.4% | 78.6% | 79% | 80.6% | 49.2% | 69.2% | 74.8% | 71% | 85.5% | 83.3% | 77.6% | 91% | 86.2% | 74.1% | 86.8% | 59.8% | 56.3% | 61.4% | 61.9% | 70.8% | 66.7% | 80.4% | 65% | 86.1% | 79.2% | 83.3% | 41%
O=P(O)(O)C(O)(Cc1cccnc1)P(=O)(O)[O][Na] (centres undefined) | 83% | 67.3% | 100% | 21.8% | 102% | 111% | 104% | 108% | 111% | 107% | 116% | 89.6% | 51.7% | 91% | 14.2% | 95.7% | 100% | 90.3% | 96.8% | 110% | 100% | 112% | 96.1% | 52.9% | 92.7% | 22.1% | 121% | 116% | 113% | 102% | 118% | 108% | 123%
O=C(Oc1ccc([N+](=O)[O-])cc1)N1CCN(Cc2cccc(Oc3ccccc3)c2)CC1 | 94.6% | 100% | 93.4% | 106% | 103% | 64.4% | 120% | 116% | 107% | 107% | 121% | 90.4% | 86.1% | 99.5% | 106% | 93.6% | 67.1% | 111% | 106% | 102% | 95.9% | 101% | 112% | 108% | 108% | 125% | 115% | 60.9% | 109% | 108% | 114% | 110% | 121%
CCOC(=O)c1ncn2c1CN(C)C(=O)c1cc(F)ccc1-2 | 78.9% | 104% | 87.2% | 93.3% | 92.9% | 94.3% | 97.2% | 90.7% | 79.8% | 84.6% | 52.9% | 94.6% | 111% | 112% | 92.5% | 105% | 98.6% | 98.8% | 93.6% | 67.5% | 57.1% | 46.8% | 99% | 107% | 109% | 113% | 116% | 131% | 117% | 87.3% | 75.6% | 79.6% | 43.9%
CC(C)[C@@H](N(CCCN)C(=O)C1=CC=C(C)C=C1)C/2=C(\CC3=CC=CC=C3)C(=O)C4=C(O2)C=C(Cl)C=C4 | 22.2% | 26.3% | 24.4% | 24.6% | 26.6% | 23.9% | 28.2% | 25.2% | 25.7% | 26.6% | 5.56% | 13.8% | 20.2% | 19.9% | 22.5% | 20% | 22.6% | 22.4% | 19.1% | 27.9% | 20.9% | 13.9% | 18.5% | 20.5% | 20% | 25.6% | 19.4% | 26.5% | 20% | 21.1% | 20.8% | 18.5% | 19.4%
